Results on eight compounds are retold here after ChEMBL document CHEMBL1201862, “PubChem BioAssay data set” (2004).

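48-hour exposure; five concentrations; linearly interpolated endpoints. Abbreviation: GI50, concentration required for 50% inhibition of growth.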 Calls of active or inactive are those of the source. No stated cut-off is given here; in the data, active = GI50 up to about 1.1 µM and inactive = higher. A value given as a limit tells only on which side of the number the result lay.

As usually defined, the GI50 is the concentration that inhibits growth by half.

Common to all, as to assay: DTP human tumour cell line panel, 48 h
Assay [1] relates to 786-0.
The test system of assay [2] is CAKI-1.
Assay [3] relates to CCRF-CEM.
Assay [4] has as its system COLO 205.
For assay [5], the system named is DU-145.
For assay [6], the system named is EKVX.
In assay [7] the test system is HCC 2998.
Assay [8] has as its system HCT-15.
Assay [9] deals with Hs-578T.
The test system of assay [10] is KM12.
The subject of assay [11] is MDA-MB-231.
Assay [12] has as its system MOLT-4.
Assay [13] concerns NCI/ADR-RES.
The subject of assay [14] is OVCAR-5.
The test system of assay [15] is SF-268.
Assay [16] deals with SNB-19.
The test system of assay [17] is U-251.
The subject of assay [18] is UACC-62.
The test system of assay [19] is UO-31.
In assay [20] the test system is MDA-MB-435.

Regarding `NCCc1ccc2c(c1)C(=O)c1c(O)ccc(O)c1C2=O`, the GI50 in assay [1] is 2.2 µM (inactive); in [2], 4.84 µM (inactive); in assay [3], 3.36 µM (inactive); in [4] it was 1.68 µM (inactive); in [5], > 19.8 µM (inactive); in [6], 2.45 µM (inactive). Also, the GI50 is > 23.9 µM (inactive) in assay [7]; 4.51 µM in assay [8]; 5.98 µM (inactive) in assay [9]; 4.72 µM (inactive) in [10]; 4.51 µM (inactive) in assay [11]; 2.76 µM (inactive) in assay [12]. For the same compound, the GI50 is 3.93 µM (inactive) in assay [13]; 5.06 µM (inactive) in assay [14]; 4.13 µM (inactive) in assay [15]; 4.72 µM (inactive) in assay [16]; 3.64 µM (inactive) in [17]; 5.86 µM (inactive) in assay [18]. For the same compound, the GI50 in [19] is 4.65 µM (inactive).
Take `O=C1N2CCc3c([nH]c4ccccc34)C23CC2CCCCC12S3` (stereo not given): the GI50 in [1] is > 100 µM (inactive); in [2] it was > 100 µM (inactive); in assay [4], > 100 µM (inactive); in [5], > 100 µM (inactive); in [6], > 100 µM (inactive); in assay [8], more than 100 µM. The GI50 in [9] was > 100 µM (inactive); in assay [10], > 100 µM (inactive); in [11] it was > 100 µM (inactive); in [20], > 100 µM (inactive); in [12], 24.7 µM (inactive); in assay [13] it was > 100 µM (inactive). The GI50 in assay [14], in [15], in assay [16], in assay [17], in assay [18] and in assay [19] was > 100 µM (inactive) each time.
Consider `COc1nc2ncc([C@@H](O)[C@H](O)CO)nc2c(=O)[nH]1`, for which the GI50 in assay [1], in assay [2], in assay [3], in [4], in assay [5] and in assay [6] was > 100 µM (inactive) in each case. The GI50 was more than 100 µM in [8]; > 100 µM (inactive) in [9]; > 100 µM (inactive) in [10]; > 100 µM (inactive) in [11]; > 100 µM (inactive) in [20]; > 100 µM (inactive) in assay [12]. In addition, the GI50 in assay [13], in assay [14], in assay [15], in assay [16], in assay [17] and in [18] was > 100 µM (inactive) throughout. Also, the GI50 in assay [19] is > 100 µM (inactive).
Regarding `C#CCOCn1cc(C)c(=O)[nH]c1=O`, the GI50 in assay [1], in assay [2], in assay [3], in assay [4], in [5] and in assay [6] was > 100 µM (inactive) throughout. The GI50 was > 100 µM (inactive) in assay [7]; more than 100 µM in assay [8]; > 100 µM (inactive) in assay [9]; > 100 µM (inactive) in [10]; > 100 µM (inactive) in assay [11]; > 100 µM (inactive) in assay [12]. The GI50 in [13], in assay [14], in [15], in assay [16], in assay [17] and in [18] was > 100 µM (inactive) throughout. The GI50 in assay [19] was > 100 µM (inactive).
With `COc1ccc(C2C(C#N)=C(S)N(C3OC(CO)C(O)C(O)C3O)C(C)=C2C(C)=O)cc1` (stereo not given), the GI50 in assay [1] is > 100 µM (inactive); in assay [3] it was > 100 µM (inactive); in [4], > 100 µM (inactive); in assay [5], > 100 µM (inactive); in assay [7], > 100 µM (inactive); in assay [8], more than 100 µM. Moreover, the GI50 is > 100 µM (inactive) in assay [9]; > 100 µM (inactive) in assay [10]; > 100 µM (inactive) in assay [11]; > 100 µM (inactive) in [20]; 40.8 µM (inactive) in assay [12]; > 100 µM (inactive) in assay [13]. Also, the GI50 is > 100 µM (inactive) in [14]; > 100 µM (inactive) in [15]; > 100 µM (inactive) in assay [16]; > 100 µM (inactive) in assay [17]; 86.1 µM (inactive) in assay [18]; > 100 µM (inactive) in assay [19].
For `Cc1cc2ccccc2n1CC(=O)N1CCCC1`, the GI50 in assay [1], in [3], in [4], in assay [5], in assay [6] and in assay [7] was > 100 µM (inactive) throughout. The GI50 is more than 100 µM in assay [8]; > 100 µM (inactive) in [9]; > 100 µM (inactive) in assay [10]; > 100 µM (inactive) in [11]; > 100 µM (inactive) in assay [20]; > 100 µM (inactive) in [12]. Besides, the GI50 in [13], in assay [14], in assay [15], in assay [16], in assay [17] and in [18] was > 100 µM (inactive) throughout. Moreover, the GI50 in [19] is > 100 µM (inactive).
Regarding `O=C(Nn1c(-c2ccccc2)nc2ccccc2c1=O)c1ccccc1O`, the GI50 was 65.2 µM (inactive) in assay [1]; 25.2 µM (inactive) in assay [3]; 67.3 µM (inactive) in assay [4]; 49.1 µM (inactive) in assay [5]; > 100 µM (inactive) in assay [6]; 70.1 µM (inactive) in [7]. Besides, the GI50 in assay [8] was 29.4 µM; in assay [9], > 100 µM (inactive); in [10], 60.1 µM (inactive); in assay [11] it was 53.5 µM (inactive); in assay [20] it was 49.4 µM (inactive); in assay [12], 24 µM (inactive). Further, the GI50 is 34.4 µM (inactive) in assay [13]; 49.4 µM (inactive) in [14]; 45.7 µM (inactive) in [15]; 45 µM (inactive) in assay [16]; 44.5 µM (inactive) in assay [17]; 23.4 µM (inactive) in assay [18]. The GI50 in assay [19] is 36.7 µM (inactive).
As for `CCCCC/C=C\C=C1\C(=O)C=C[C@@H]1C/C=C\CCCC(=O)O`, the GI50 in assay [1] is 3.21 µM (inactive); in assay [2] it was 3.37 µM (inactive); in assay [3] it was 0.205 µM (active); in assay [4] it was 2.96 µM (inactive); in [5], 6.92 µM (inactive); in [6], 1.9 µM (inactive). The GI50 was 5.24 µM in [8]; 2.47 µM (inactive) in [9]; 2.67 µM (inactive) in assay [10]; 9.2 µM (inactive) in [11]; 2.42 µM (inactive) in assay [20]; 2.25 µM (inactive) in [12]. Besides, the GI50 in assay [13] is 1.24 µM (inactive); in assay [14], 3.41 µM (inactive); in assay [15] it was 4.37 µM (inactive); in assay [16] it was 4.51 µM (inactive); in assay [17], 2.48 µM (inactive); in [18] it was 3.94 µM (inactive). For the same compound, in assay [19], the GI50 was 6.31 µM (inactive).
